Source: paper PMC6916368, “Cell‐Based Optimization of Covalent Reversible Ketoamide Inhibitors Bridging the Unprimed to the Primed Site of the Proteasome β5 Subunit” (Chemmedchem, 2019)

Legend:
[1] = target: T1, β2c subunit of isolated human 20S proteasome (Homo sapiens, UniProt Q99436); experiment: Proteasome inhibition assay (20 S Proteasome Assay Kit, Bz‐VGR‐AMC); format: biochemical; conditions: c = 1 µM, n=1; read-out: Inhibition cCP β2
T1 construct: purchased Enzo Life Sciences
Method in brief: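 Isolated 20S proteasome (200 ng/well) was preincubated 30 min with inhibitor, then Bz-VGR-AMC (100 μM final) was added for 60 min and fluorescence read. Single-point residual activity was taken at 100 nM or 1 μM; IC50 was fitted from duplicates, mean of three independent experiments.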

in vitro = format: cell-based; conditions: human
Procedure: (§1) Remarkably, in THP‐1 cells the initial cytotoxicity is increasing for 3 compared to 27 until 14 h treatment (9‐fold) but is approaching to the end of the assay.
(§2) Time‐dependent determination of cell viability. For the determination of time‐dependent cytotoxic activity 5.000 cells per well were plated in a white 384 well‐plate in RPMI‐1640 medium supplemented with 0.1 % FBS. Real‐Time Glo MT cell viability assay (Promega) and inhibitor were added to the final concentration and luminescence was determined using a Tecan M1000 microplate reader at the time points indicated (SI chapter 2b, Figure S9–S17, Table S2).

THP‐1 cells [2] = experiment: Cell viability endpoint assay (Celltiter Blue, 72 h); format: cell-based; conditions: Homo sapiens, mean±SD from two independent experiments
Method in brief: (§3)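 Proteasome inhibitors were tested at 1 nM to 10 μM final on 50.000 cells/well in RPMI-1640 with 0.1 % FBS, plated overnight beforehand, at 37 °C and 5 % CO2. Reagent was incubated 120 minutes before the fluorescence read. IC50 came from a sigmoidal fit of technical triplicates, as the mean of two independent experiments.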

Jurkat cells = experiment: as above; format: cell-based; conditions: Homo sapiens, mean±SD from two independent experiments
Method in brief: as §3

MV4‐11 cells = experiment: as above; format: cell-based; conditions: Homo sapiens, MV4-11, mean±SD from two independent experiments
Method in brief: as §3

[3] = target: T2, β1c subunit of isolated human 20S proteasome (Homo sapiens, UniProt P28072); experiment: Proteasome inhibition assay (20 S Proteasome Assay Kit, Z‐LLE‐AMC); format: biochemical; conditions: c = 1 µM, n=1; read-out: Inhibition cCP β1
T2 construct: purchased Enzo Life Sciences
Method in brief: (§4)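 Isolated human 20S proteasome (200 ng/well) preincubated 30 min with inhibitor, then 100 μM final Suc-LLVY-AMC (β5c, β5i) or Z-LLE-AMC (β1c) added for 60 min; fluorescence read. Residual activity at 100 nM final (n=3; β5c, β5i) or 1 μM (n=1, incl. β1c). IC50s: technical duplicates, mean of three experiments.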

Danio rerio embryos = experiment: Danio rerio embryo toxicity assay (not dechorionated); format: in vivo
Procedure: Danio rerio embryo toxicity assay. Fish keeping protocols are approved by the Darmstadt administrative authority and documented. All fish were treated humanely. […] Embryos were decollated into separate wells containing a total volume of 200 μL and the inhibitor at the given concentration.

THP‐1 cells [4] = format: cell-based
Procedure: as §1, §2

[5] = target: T3, β5i subunit of isolated human 20S proteasome (Homo sapiens, UniProt P28062); experiment: Proteasome inhibition assay (20 S Proteasome Assay Kit, Suc‐LLVY‐AMC); format: biochemical; conditions: for inhibition at 1 µM: c = 1 µM, n=1, read-out: Inhibition iCP β5; for inhibition at 0.1 µM: c=100 nM, read-out: Rel. Inhibition β5i; for IC50: purified proteasome
T3 construct: purchased Enzo Life Sciences
Method in brief: as §4

[6] = target: T4, β5c subunit of isolated human 20S proteasome (Homo sapiens, UniProt P28074); experiment: as above; format: biochemical; conditions: for inhibition at 1 µM: c = 1 µM, n=1, read-out: Inhibition cCP β5; for inhibition at 0.1 µM: c=100 nM, read-out: Rel. Inhibition β5c; for IC50: purified proteasome; for Fold‐IC50 β5i/β5c: selectivity β5c over β5i
T4 construct: purchased Enzo Life Sciences
Method in brief: as §4

[7] = test system: proteasome in MV4‐11 cells; experiment: In‐cell determination of proteasome IC50 (conversion of substrate 30); format: cell-based; conditions: MV4-11, without pre‐incubation
Procedure: In‐cell determination of proteasome IC 50. […] Substrate was added to give a final concentration of 30 μM and substrate conversion was detected by fluorescence measurement over 100 min (assay validation) or 60 min (inhibition assays) using a Tecan M1000 microplate reader. Rate of fluorescence change over time was calculated, rates for negative (no‐cell) control was subtracted and normalized to positive control (no inhibitor).

| Compound | inhibition at 1 µM [1] [%] | IC50 (THP‐1 cells [2]) [µM] | IC50 (Jurkat cells) [µM] | IC50 (MV4‐11 cells) [µM] | inhibition at 1 µM [3] [%] | Survival of embryos (not dechorionated) (Danio rerio embryos; 1 µM, 24 h) [%] | Survival of embryos (not dechorionated) (Danio rerio embryos; 1 µM, 48 h) [%] | Survival of embryos (not dechorionated) (Danio rerio embryos; 1 µM, 72 h) [%] | Survival of embryos (not dechorionated) (Danio rerio embryos; 1 µM, 96 h) [%] | Survival of embryos (not dechorionated) (Danio rerio embryos; 5 µM, 24 h) [%] | Survival of embryos (not dechorionated) (Danio rerio embryos; 5 µM, 48 h) [%] | Survival of embryos (not dechorionated) (Danio rerio embryos; 5 µM, 72 h) [%] | Survival of embryos (not dechorionated) (Danio rerio embryos; 5 µM, 96 h) [%] | Survival of embryos (not dechorionated) (Danio rerio embryos; 10 µM, 24 h) [%] | Survival of embryos (not dechorionated) (Danio rerio embryos; 10 µM, 48 h) [%] | Survival of embryos (not dechorionated) (Danio rerio embryos; 10 µM, 72 h) [%] | Survival of embryos (not dechorionated) (Danio rerio embryos; 10 µM, 96 h) [%] | Survival of embryos (not dechorionated) (Danio rerio embryos; 25 µM, 24 h) [%] | Survival of embryos (not dechorionated) (Danio rerio embryos; 25 µM, 48 h) [%] | Survival of embryos (not dechorionated) (Danio rerio embryos; 25 µM, 72 h) [%] | also measured |
| --- | --- | --- | --- | --- | --- | --- | --- | --- | --- | --- | --- | --- | --- | --- | --- | --- | --- | --- | --- | --- | --- |
| CC(C)C[C@H](NC(=O)[C@H](CCc1ccccc1)NC(=O)CN1CCOCC1)C(=O)N[C@@H](Cc1ccccc1)C(=O)N[C@@H](CC(C)C)C(=O)[C@@]1(C)CO1 [Carfilzomib 3, Carfilzomib] | 37 | 0.135 ± 0.039 | 0.014 ± 0.003 | 0.0036 ± 0.0018 | -18 | 100 | 100 | 100 | 100 | 100 | 100 | 100 | 100 | 100 | 100 | 100 | 100 | 100 | 100 | 100 | IC50 at 13 h (in vitro): 0.05 to 0.4 µM; Survival of embryos (not dechorionated) (Danio rerio embryos; 25 µM, 96 h): 100%; cytotoxicity of 3 compared to 27 (THP‐1 cells [4]): 9 fold; inhibition at 1 µM [5]: 91%; inhibition at 0.1 µM [5]: 43%; inhibition at 1 µM [6]: 96%; inhibition at 0.1 µM [6]: 86% |
| Cc1ccc(NC(=O)C(=O)C(CC(C)C)NC(=O)C(CC(C)C)NC(=O)C(CC(C)C)NC(=O)OCc2ccccc2)c(C)c1 (stereo not drawn) [Compound 7, BSc4999] | 9 | 0.024 ± 0.0001 | 0.03 ± 0.0003 | 0.019 ± 0.003 | -26 | 100 | 100 | 100 | 100 | 100 | 100 | 100 | 100 | 100 | 100 | 100 | 100 | 80 | 80 | 80 | fold more potent than 9 (in-cell conversion of 30) [7]: 4 fold; Survival of embryos (not dechorionated) (Danio rerio embryos; 25 µM, 96 h): 80%; inhibition at 1 µM [5]: 74%; inhibition at 0.1 µM [5]: 33%; IC50 [5]: 0.204 µM; inhibition at 1 µM [6]: 92%; inhibition at 0.1 µM [6]: 64%; IC50 [6]: 0.048 µM; Fold‐IC50 β5i/β5c [6]: 4.3 |
| CC(C)C[C@H](NC(=O)OCc1ccccc1)C(=O)N[C@@H](CC(C)C)C(=O)N[C@@H](CC(C)C)C(=O)C(=O)Nc1cccc(Oc2ccccc2)c1 [Compound 9, Benzyl‐((S)‐4‐methyl‐1‐(((S)‐4‐methyl‐1‐(((S)‐5‐methyl‐1,2‐dioxo‐1‐((3‐phenoxyphenyl)‐amino)hexan‐3‐yl)amino)‐1‐oxopentan‐2‐yl)amino)‐1‐oxopentan‐2‐yl)carbamate] | 9 | 0.03 ± 0.01 | 0.024 ± 0.004 | 0.018 ± 0.003 | 0 | 100 | 100 | 100 | 100 | 100 | 100 | 100 | 100 | 100 | 100 | 100 | 100 | 100 | 100 | 100 | Survival of embryos (not dechorionated) (Danio rerio embryos; 25 µM, 96 h): 100%; inhibition at 1 µM [5]: 31%; inhibition at 0.1 µM [5]: 23%; IC50 [5]: 0.17 µM; inhibition at 1 µM [6]: 81%; inhibition at 0.1 µM [6]: 56%; IC50 [6]: 0.066 µM; Fold‐IC50 β5i/β5c [6]: 2.6 |
